Measured values taken from patent publication US20060222628A1, “Gallium complexes of 3-hydroxy-4-pyrones to treat infection by intracellular prokaryotes and DNA viruses” (priority 1999, published 2006).

Assays:
[1] = test system: reverse transcriptase in Rauscher murine leukemia virus; settings: in vitro; cited from earlier work
[2] = in vivo, po; cited from earlier work
[3] = type: physicochemical
Method: The material forms white to pale beige monoclinic crystals with unit cell parameters of about a=7.899(1)Å, b=8.765(1)Å, c=31.626(2)Å, beta=103.253(7) degrees, V=2131 Å^3, based on powder x-ray diffraction analysis. The solubility of this compound is measured as about 5 millimolar in distilled deionized water at 23° C. Crystallization from other solvents or under other conditions may produce other crystal structures. Under some conditions, water or other solvents may also be incorporated into the structure. […] About 5.5 grams of powdered anhydrous sodium carbonate are added, and stirring continues for additional 12 minutes. […] The remaining crystalline solid is the 3:1 maltol gallium composition. […] The solubility of this composition is measured as about 24 millimolar in distilled deionized water at 23° C.

[4] = test system: HIV-1; settings: at subinhibitory concentrations; cited from earlier work

Structure (SMILES): [Ga] [Gallium]
- Inhibition of reverse transcriptase [1]: shown in vitro to inhibit the enzyme reverse transcriptase

Structure (SMILES): CCc1occc(=O)c1O [ethyl maltol, 3-hydroxy-2-ethyl-4-pyrone]
- Toxicity when taken orally [2]: very low toxicities

Structure (SMILES): CCc1occc(=O)c1[O-].CCc1occc(=O)c1[O-].CCc1occc(=O)c1[O-].[Ga+3] [gallium ethyl maltolate, tris(3-hydroxy-2-ethyl-4H-pyran-4-onato)gallium]
- Solubility [3]: about 5 millimolar

Structure (SMILES): O=[N+]([O-])[O-].O=[N+]([O-])[O-].O=[N+]([O-])[O-].[Ga+3] [gallium nitrate]
- Effect on inhibitory effects of nucleoside analogs [4]: potentiated the inhibitory effects of zidovudine, azidothymidine (AZT), dideoxy inosine (ddI), and dideoxy cytosine (ddC)

Structure (SMILES): Cc1occc(=O)c1O [maltol, 3-hydroxy-2-methyl-4-pyrone]
- Toxicity when taken orally [2]: very low toxicities
